Laboratory results: ChEMBL document CHEMBL1140044, “Structure-activity relationship study on anti-HIV 6-desfluoroquinolones” (J Med Chem, 2008)
Values after ≈ are worked out from the molar mass of the structure shown. Active and inactive are the calls of the source. The calls are words filed in the database; no cut-off is given here.

Legend:
[1] = tested on: Human immunodeficiency virus 1; test: Antiviral activity against HIV1 3B in MT4 cells assessed as inhibition of virus-induced cytopathogenicity by MTT assay; format: functional, organism-based; conditions: Human immunodeficiency virus 1, 3B
[2] = tested on: Human immunodeficiency virus 2; test: Antiviral activity against HIV2 ROD in MT4 cells assessed as inhibition of virus-induced cytopathogenicity by MTT assay; format: functional, organism-based; conditions: Human immunodeficiency virus 2, ROD
[3] = Cytotoxicity against mock-infected human MT4 cells after 5 days by MTT assay; format: cell-based
[4] = Selectivity index, ratio of CC50 for human MT4 cells to EC50 for HIV2 ROD; format: toxicity, cell-based; conditions: read-out: Ratio CC50/EC50
[5] = Selectivity index, ratio of CC50 for human MT4 cells to EC50 for HIV1 3B; format: toxicity, cell-based; conditions: read-out: Ratio CC50/EC50
[6] = Selectivity index, ratio of CC50 for human CEM cells to EC50 for HIV2 ROD; format: toxicity, cell-based, CCRF-CEM; conditions: read-out: Ratio CC50/EC50
[7] = tested on: Human immunodeficiency virus 2; test: Antiviral activity against HIV2 ROD in CEM cells assessed as inhibition of virus-induced syncytium formation after 4 days by microscopy; format: functional, organism-based; conditions: Human immunodeficiency virus 2, ROD, CCRF-CEM, 96 h
[8] = Cytotoxicity against mock-infected human PBMC cells by trypan blue exclusion assay; format: cell-based
[9] = Selectivity index, ratio of CC50 for human PBMC cells to EC50 for HIV1 3B; format: toxicity, cell-based; conditions: read-out: Ratio CC50/EC50
[10] = Selectivity index, ratio of CC50 for human CEM cells to EC50 for HIV1 3B; format: toxicity, cell-based, CCRF-CEM; conditions: read-out: Ratio CC50/EC50
[11] = tested on: Human immunodeficiency virus 1; test: Inhibition of HIV1 3B production in chronically infected HUT78 cells assessed as virus p24 antigen production after 44 hrs by ELISA; format: functional, organism-based
[12] = Cytotoxicity against mock-infected human CEM cells by Coulter counter; format: cell-based; conditions: mock-infected CEM (CCRF-CEM) cells
[13] = tested on: Human immunodeficiency virus 1; test: Antiviral activity against HIV1 3B in PBMC assessed as inhibition of p24 production after 7 days by ELISA; format: functional, organism-based; conditions: Human immunodeficiency virus 1, 3B, 168 h
[14] = tested on: Human immunodeficiency virus 1; test: Antiviral activity against HIV1 3B in CEM cells assessed as inhibition of virus-induced syncytium formation after 4 days by microscopy; format: functional, organism-based; conditions: Human immunodeficiency virus 1, 3B, CCRF-CEM, 96 h
[15] = tested on: Human immunodeficiency virus 1; test: Antiviral activity against HIV1 3B in MT4 cells assessed as virus p24 antigen production administered at 16 hrs post infection by ELISA; format: functional, organism-based
[16] = tested on: Human immunodeficiency virus 1; test: Antiviral activity against HIV1 3B in MT4 cells assessed as virus p24 antigen production administered at 5 hrs post infection by ELISA; format: functional, organism-based
[17] = tested on: Human immunodeficiency virus 1; test: Antiviral activity against HIV1 3B in MT4 cells assessed as virus p24 antigen production administered at 10 hrs post infection by ELISA; format: functional, organism-based
[18] = molecular target: T1, Protein Tat (Human immunodeficiency virus type 1 group M subtype B (isolate HXB2)(HIV-1)) (UniProt P04608); test: Inhibition of HIV1 Tat-mediated LTR promoter transactivation in Tat/GFP plasmid expressed in Jurkat cells assessed as GFP gene expression by FACS analysis; format: cell-based; conditions: Human immunodeficiency virus 1
T1 sequence (whole entry): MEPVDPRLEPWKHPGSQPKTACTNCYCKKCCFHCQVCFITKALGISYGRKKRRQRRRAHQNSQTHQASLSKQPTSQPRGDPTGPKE

SMILES	EC50 [1]	EC50 [2]	CC50 at 120 h [3]	selectivity ratio [4]	selectivity ratio [5]	selectivity ratio [6]	EC50 [7]	CC50 [8]	selectivity ratio [9]	selectivity ratio [10]	Activity [11]	CC50 [12]	EC50 [13]	EC50 [14]	Activity [15]	Activity [16]	Activity [17]	Activity [18]
CC(=O)c1cn(C)c2cc(N3CCN(c4ccccn4)CC3)c(N)cc2c1=O	> 125 µg/mL	> 125 µg/mL	> 125 µg/mL	–	–	–	–	–	–	–	–	–	–	–	–	–	–	–
Cn1cc(C(=O)O)c(=O)c2cc(N)c(N3CCC(c4ccccn4)C3)cc21 (stereo not given)	> 90.8 µg/mL	> 90.8 µg/mL	> 90.8 µg/mL	< 1	< 1	–	–	–	–	–	–	–	–	–	–	–	–	–
Cn1cc(C(=O)O)c(=O)c2cc(N)c(N3CCC(c4ccccn4)CC3)cc21	> 125 µg/mL	> 125 µg/mL	> 125 µg/mL	–	–	–	–	–	–	–	–	–	–	–	–	–	–	–
Nc1cc2c(=O)c(C(=O)O)c[nH]c2cc1N1CCN(c2cccc(C(F)(F)F)c2)CC1	0.38 µg/mL (≈ 0.879 µM)	0.46 µg/mL (≈ 1.06 µM)	1.64 µg/mL (≈ 3.79 µM)	4	4	–	–	–	–	–	–	–	–	–	–	–	–	–
Cc1cccc(Sc2cc3c(cc2N)c(=O)c(C(=O)O)cn3C)c1	> 2 µg/mL	> 2 µg/mL	> 2 µg/mL	< 1	< 1	–	–	–	–	–	–	–	–	–	–	–	–	–
CO/N=C(\C)c1cn(C)c2cc(N3CCN(c4ccccn4)CC3)c(N)cc2c1=O	> 92.6 µg/mL	> 92.6 µg/mL	92.7 µg/mL (≈ 228 µM)	< 1	< 1	–	–	–	–	–	–	–	–	–	–	–	–	–
Cn1cc(C(=O)O)c(=O)c2ccc(N3CCN(c4cccc(C(F)(F)F)c4)CC3)cc21	0.07 µg/mL (≈ 0.162 µM)	0.13 µg/mL (≈ 0.301 µM)	2.61 µg/mL (≈ 6.05 µM)	21	38	4	0.28 µg/mL (≈ 0.649 µM)	0.69 µg/mL (≈ 1.6 µM)	2	9	Active	1.2 µg/mL (≈ 2.78 µM)	0.28 µg/mL (≈ 0.649 µM)	0.13 µg/mL (≈ 0.301 µM)	–	–	–	–
Cn1cc(C(=O)O)c(=O)c2ccc(N3CCN(c4cnccn4)CC3)cc21	58.2 µg/mL (≈ 159 µM)	16.4 µg/mL (≈ 44.7 µM)	> 125 µg/mL	8	> 2	> 2	47.5 µg/mL (≈ 130 µM)	–	–	> 3	–	> 100 µg/mL	–	35 µg/mL (≈ 95.8 µM)	–	–	–	–
Cn1cc(C(=O)O)c(=O)c2cc(N)c(N3CCNCC3)cc21	> 94 µg/mL	> 94 µg/mL	≥ 94 µg/mL	–	–	–	–	–	–	–	–	–	–	–	–	–	–	–
Nc1cc2c(=O)c(C(=O)O)c[nH]c2cc1N1CCN(c2nc3ccccc3o2)CC1	0.23 µg/mL (≈ 0.567 µM)	0.28 µg/mL (≈ 0.691 µM)	1.95 µg/mL (≈ 4.81 µM)	7	11	14	0.23 µg/mL (≈ 0.567 µM)	1.12 µg/mL (≈ 2.76 µM)	7	11	–	3.17 µg/mL (≈ 7.82 µM)	0.16 µg/mL (≈ 0.395 µM)	0.3 µg/mL (≈ 0.74 µM)	–	–	–	–
Nc1cc2c(=O)c(C(=O)O)c[nH]c2cc1N1CCN(c2ccccn2)CC1	0.45 µg/mL (≈ 1.23 µM)	0.16 µg/mL (≈ 0.438 µM)	2.16 µg/mL (≈ 5.91 µM)	14	5	53	0.09 µg/mL (≈ 0.246 µM)	1.28 µg/mL (≈ 3.5 µM)	13	93	–	4.75 µg/mL (≈ 13 µM)	0.094 µg/mL (≈ 0.257 µM)	0.051 µg/mL (≈ 0.14 µM)	–	–	–	–
C/C(=N\O)c1cn(C)c2cc(N3CCN(c4ccccn4)CC3)c(N)cc2c1=O	> 125 µg/mL	> 125 µg/mL	> 125 µg/mL	–	–	–	–	–	–	–	–	–	–	–	–	–	–	–
Cn1cc(C(=O)O)c(=O)c2ccc(N3CCN(c4nccs4)CC3)cc21	10 µg/mL (≈ 27.1 µM)	12.7 µg/mL (≈ 34.3 µM)	> 125 µg/mL	> 10	> 12	≥ 12	8 µg/mL (≈ 21.6 µM)	–	–	≥ 38	–	≥ 100 µg/mL	–	2.6 µg/mL (≈ 7.02 µM)	–	–	–	–
Cn1cc(C(=O)O)c(=O)c2cc(N)c(N3CCN(Cc4ccccn4)CC3)cc21	> 125 µg/mL	> 125 µg/mL	> 125 µg/mL	–	–	–	–	–	–	–	–	–	–	–	–	–	–	–
CCN(CCNc1cc2c(cc1N)c(=O)c(C(=O)O)cn2C)c1ccccn1	> 16.9 µg/mL	> 16.9 µg/mL	16.9 µg/mL (≈ 44.2 µM)	–	–	–	–	–	–	–	–	–	–	–	–	–	–	–
Cn1cc(C(=O)NCc2ccc(Cl)cc2)c(=O)c2cc(N)c(N3CCN(c4ccccn4)CC3)cc21	> 125 µg/mL	> 125 µg/mL	> 125 µg/mL	1	–	–	–	–	–	–	–	–	–	–	–	–	–	–
Cn1cc(C(=O)O)c(=O)c2cc(N)c(N3CCN(c4ccccn4)CC3)cc21	0.058 µg/mL (≈ 0.153 µM)	0.097 µg/mL (≈ 0.256 µM)	0.84 µg/mL (≈ 2.21 µM)	10	15	> 1670	0.06 µg/mL (≈ 0.158 µM)	1.45 µg/mL (≈ 3.82 µM)	29	> 3330	–	> 100 µg/mL	0.051 µg/mL (≈ 0.134 µM)	0.03 µg/mL (≈ 0.0791 µM)	–	–	–	–
Cn1cc(C(=O)O)c(=O)c2cc(N)c(N3CCN(c4cnc5ccccc5n4)CC3)cc21	0.18 µg/mL (≈ 0.418 µM)	0.19 µg/mL (≈ 0.441 µM)	3.2 µg/mL (≈ 7.43 µM)	17	18	> 14	0.28 µg/mL (≈ 0.65 µM)	–	–	> 80	–	> 4 µg/mL	–	0.05 µg/mL (≈ 0.116 µM)	–	–	–	–
Cn1cc(C(=O)O)c(=O)c2cc(N)c(N3CCN(c4ccc5ccccc5n4)CC3)cc21	0.035 µg/mL (≈ 0.0815 µM)	0.022 µg/mL (≈ 0.0512 µM)	0.21 µg/mL (≈ 0.489 µM)	10	6	55	0.075 µg/mL (≈ 0.175 µM)	–	–	115	–	4.15 µg/mL (≈ 9.66 µM)	–	0.036 µg/mL (≈ 0.0838 µM)	–	–	–	–
CC(C)c1nc(CN(C)C(=O)N[C@H](C(=O)N[C@@H](Cc2ccccc2)C[C@H](O)[C@H](Cc2ccccc2)NC(=O)OCc2cncs2)C(C)C)cs1	–	–	–	–	–	–	–	–	–	–	–	–	–	–	Active	Active	–	–
Cn1cc(C(=O)O)c(=O)c2ccc(N3CCN(c4nc5ccccc5s4)CC3)cc21	0.03 µg/mL (≈ 0.0713 µM)	0.04 µg/mL (≈ 0.0951 µM)	0.44 µg/mL (≈ 1.05 µM)	5.5	14.7	104	0.065 µg/mL (≈ 0.155 µM)	0.65 µg/mL (≈ 1.55 µM)	4	281	Active	6.74 µg/mL (≈ 16 µM)	0.15 µg/mL (≈ 0.357 µM)	0.024 µg/mL (≈ 0.0571 µM)	–	–	Active	Dose-dependent effect
Cn1ccc(=O)c2cc(N)c(N3CCN(c4ccccn4)CC3)cc21	> 105 µg/mL	> 104 µg/mL	105 µg/mL (≈ 313 µM)	< 1	< 1	–	–	–	–	–	–	–	–	–	–	–	–	–
Cn1cc(C(N)=O)c(=O)c2cc(N)c(N3CCN(c4ccccn4)CC3)cc21	> 125 µg/mL	> 125 µg/mL	> 125 µg/mL	–	–	–	–	–	–	–	–	–	–	–	–	–	–	–
Cn1cc(C(=O)NCc2ccc(F)cc2F)c(=O)c2cc(N)c(N3CCN(c4ccccn4)CC3)cc21	> 32.2 µg/mL	> 32.2 µg/mL	32.2 µg/mL (≈ 63.9 µM)	< 1	< 1	–	–	–	–	–	–	–	–	–	–	–	–	–
Cn1ccc(=O)c2cc(N)c(N3CCN(c4nc5ccccc5o4)CC3)cc21	> 72.1 µg/mL	> 72.1 µg/mL	72.1 µg/mL (≈ 192 µM)	< 1	< 1	–	–	–	–	–	–	–	–	–	–	–	–	–
Nc1cc2c(=O)c(C(=O)O)c[nH]c2cc1N1CCN(c2nccs2)CC1	1.21 µg/mL (≈ 3.26 µM)	1.92 µg/mL (≈ 5.17 µM)	7.61 µg/mL (≈ 20.5 µM)	5	7	26	0.6 µg/mL (≈ 1.62 µM)	2.02 µg/mL (≈ 5.44 µM)	10	23	–	15.8 µg/mL (≈ 42.5 µM)	0.21 µg/mL (≈ 0.565 µM)	0.7 µg/mL (≈ 1.88 µM)	–	–	–	–
Cc1cn([C@H]2C[C@H](N=[N+]=[N-])[C@@H](CO)O2)c(=O)[nH]c1=O	–	–	–	–	–	–	–	–	–	–	–	–	–	–	Active	Active	–	–
Cn1cc(C(=O)O)c(=O)c2ccc(N3CCN(c4ccccn4)CC3)cc21	19.2 µg/mL (≈ 52.7 µM)	> 65.5 µg/mL	65.5 µg/mL (≈ 180 µM)	< 1	3.4	> 56	1.8 µg/mL (≈ 4.94 µM)	> 100 µg/mL	> 74	> 83	–	> 100 µg/mL	1.35 µg/mL (≈ 3.7 µM)	1.2 µg/mL (≈ 3.29 µM)	–	–	–	–
Cn1cc(C(=O)O)c(=O)c2ccc(N3CCN(c4nc5ccccc5o4)CC3)cc21	5.76 µg/mL (≈ 14.2 µM)	11.9 µg/mL (≈ 29.3 µM)	> 125 µg/mL	> 11	> 22	> 7	14 µg/mL (≈ 34.6 µM)	–	–	> 30	–	> 100 µg/mL	–	3.35 µg/mL (≈ 8.28 µM)	–	–	–	Dose-dependent effect
Cn1ccc(=O)c2cc(N)c(N3CCN(c4nccs4)CC3)cc21	> 89.5 µg/mL	> 89.5 µg/mL	89.5 µg/mL (≈ 262 µM)	< 1	< 1	–	–	–	–	–	–	–	–	–	–	–	–	–
